Data reported in PMC12381739, “Druglike Molecular Degraders of the Oncogenic RNA-Binding Protein HuR” (JACS Au, 2025).

Key:
[1] = molecular target: T1, HuR RRM1/2 (Homo sapiens, UniProt Q15717); experiment: Fluorescence polarization (FP) displacement assay, 5′ FAM-labeled RNA probe from HuR; details: displacement of 5′-FAM RNA probe UAUUUAUUUA (20 nM) from 500 nM HuR RRM1/2; read-out: Binding affinity towards HuR in FP assay (Kd)
T1 construct: 20 nM of the 5′-FAM RNA probe and 500 nM of HuR RRM1/2
Experimental: Following the synthesis, our initial aim was to ensure that the new derivatives retained their affinity for HuR’s RNA-binding pocket. Thus, a binding evaluation assay was conducted. As previously reported, the RNA-binding pocket of HuR specifically recognizes the UTR sequences of mRNAs, with […] identified as a common binding motif. To evaluate the binding of each degrader, we conducted a fluorescence-based assay utilizing a 5-carboxyfluorescein (5′ FAM)-labeled reporter. This fluorescence polarization (FP) assay is based on the displacement of the 5′ FAM-labeled mRNA from HuR’s RNA-binding pocket, which provides insight into both the binding affinity of the degrader and its capacity to disrupt the HuR-mRNA interaction, thereby serving as a means of validating target engagement. When the 5′ FAM-RNA probe is bound to HuR, it forms a binary complex, resulting in slower rotational movement and a consequently high FP signal. However, when either molecule displaces the 5′ FAM-labeled RNA, the probe is released into the solution, where it undergoes rapid rotation, leading to a significant reduction in the FP signal (Figure S3). This decrease in FP serves as a quantitative measure of the degrader’s ability to compete with mRNA for HuR binding. […] As mentioned above, we synthesized a series of HuR ligand derivatives featuring indole and benzothiophene cores, along with ester and carboxylic acid functional groups.
As previously reported, the sequence of the fluorescently labeled (5′-FAM) RNA probe is […]. The assays were performed in PBS buffer (20 mM sodium phosphate, 150 mM NaCl, 1 mM dithiothreitol, 0.05% PLURONIC-127, 15% DMSO) at 293 K. Fluorescence was measured using the Synergy H1 Hybrid Multi-Mode Microplate Reader (Biotek, Agilent) with excitation and emission wavelengths set to 485 and 528 nm, respectively. Each well of a 384-well plate contained 20 nM of the 5′-FAM RNA probe and 500 nM of HuR RRM1/2. Compounds were tested at eight concentrations (0.1 nM–100 μM), with compound 10 serving as a positive control and PBS as the negative control. The protein-mRNA mixture was incubated for 1.5 h to allow for binding interactions. After this incubation, the compounds were added, and the mixture was incubated for an additional hour. The FP emission of the resulting HuR-compound complex was then recorded. The percent inhibition of binding was calculated by comparing the FP values of experimental conditions to the PBS control. The FP value corresponding to the HuR-RNA complex in the presence of DMSO was used as the 100% complexation reference, while the FP value of the labeled RNA alone was set as 0% complexation. The dissociation constant (K d) for the compound-HuR binding interaction was determined by fitting the dose–response curve to specific binding models using Prism 10.2.2. All experiments were performed in triplicate.

[2] = system: MCF-7 cells; experiment: Caspase-Glo 3/7 apoptosis assay; type: cell-based, human; details: MCF-7, 10 nM
Text: To elucidate the decrease in cell viability observed, we evaluated the potential increase in apoptosis using the […] Caspase-Glo 3/7 assay system. Upon cell lysis, active caspases cleave a luminogenic substrate, releasing aminoluciferin, which is subsequently converted to light by luciferase. The intensity of the signal directly correlates with the levels of apoptosis. […] This destabilization reduces the levels of proteins essential for cancer cell survival, resulting in cumulative cellular stress, diminished proliferation, and enhanced cytotoxicity. […] This enhanced effect is likely due to the catalytic nature of the molecular glue degraders, offering promising potential for cancer treatment.
MCF-7 cells were seeded in 96-well plates to 80% confluency and treated with synthesized compounds at four concentrations (1 nM–1 μM) for 24 and 48 h. Cell apoptosis was analyzed using the Caspase-Glo 3/7 Assay System (Promega, G8090). Each sample was incubated with Caspase-Glo 3/7 solution for 1 h, followed by luminescence measurement. Luminescence was measured […] using the Synergy H1 Hybrid Multi-Mode Microplate Reader (Biotek, Agilent). Cell apoptosis was calculated as the percent increase in luminescence of treated cells compared to untreated controls. All experiments were performed in triplicate.

[3] = molecular target: T2, HuR (Homo sapiens, UniProt Q15717); experiment: HuR protein expression by western blot in MDA-MB-231 cells; type: cell-based; set-up: endogenous in cells; details: 48 h
Experimental: Total protein was extracted using RIPA cell lysis buffer (BioPrep) containing a protease inhibitor, and protein concentration was measured using the BCA protein assay (Sigma-Aldrich) according to the manufacturer’s protocol. Approximately 30 μg of total protein were resolved on a 12% SDS-acrylamide gel and transferred to a PVDF membrane (Immobilon FL transfer membrane; Merck). The membrane was washed with 1× Tris-buffered saline (TBS) containing 0.1% (v/v) Tween-20 (TBST; Tris-base, pH 7.6, NaCl, and Tween-20) and blocked in 1× TBST containing 5% (w/v) BSA for 2 h at room temperature. The membrane was then incubated overnight at 4 °C with primary antibodies: a 1:1000 dilution of rabbit anti-ELAVL1/HuR (Cell Signaling Technology, #12582), a 1:1000 dilution of mouse anti-Bcl2 (Cell Signaling Technology, #15071), or a 1:10,000 dilution of rabbit anti-Vinculin (Cell Signaling Technology, #13901) in 1× TBST containing 5% (w/v) BSA. Following primary antibody incubation, the membrane was washed with 1× TBST and incubated with a 1:10,000 dilution of the appropriate horseradish-peroxidase-conjugated secondary antibody (antirabbit IgG: Cell Signaling, #7074 or antimouse IgG: Cell Signaling, #7076) at room temperature for 2 h. […] The fold change in the expression of the target proteins (HuR or Bcl2) was calculated by normalizing the band intensity to the Vinculin band intensity using ImageJ.

[4] = molecular target: T2, HuR; experiment: Proteasome inhibitor (bortezomib, MG132) mechanistic validation of HuR degradation in MCF-7 cells; type: cell-based; set-up: endogenous in cells; host or cells: MCF-7; details: MCF-7, with bortezomib or MG132
Experimental: MCF-7 cells were seeded in 6-well plates at approximately 60% confluency and incubated for 12 h. The cells were then treated with 1 μM of the proteasome inhibitors Bortezomib (Thermo Fisher Scientific, CAS: 179324-69-7) and MG132 (Aaron Chemicals, CAS: 1211877-36-9). After treatment, the synthesized compounds were added at a concentration of 10 μM, and the cells were incubated for 5 h.

T2 sequence (Q15717 whole entry): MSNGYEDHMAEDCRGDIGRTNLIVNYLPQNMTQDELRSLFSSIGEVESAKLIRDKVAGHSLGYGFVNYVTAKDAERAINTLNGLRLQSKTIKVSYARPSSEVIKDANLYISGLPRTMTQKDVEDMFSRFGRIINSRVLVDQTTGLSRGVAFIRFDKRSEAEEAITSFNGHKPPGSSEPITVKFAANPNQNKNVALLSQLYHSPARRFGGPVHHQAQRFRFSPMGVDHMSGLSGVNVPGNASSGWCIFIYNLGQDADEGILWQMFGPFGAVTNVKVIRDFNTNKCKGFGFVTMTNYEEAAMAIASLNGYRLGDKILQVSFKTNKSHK
T1 sequence (Q15717 18-186 limits assumed): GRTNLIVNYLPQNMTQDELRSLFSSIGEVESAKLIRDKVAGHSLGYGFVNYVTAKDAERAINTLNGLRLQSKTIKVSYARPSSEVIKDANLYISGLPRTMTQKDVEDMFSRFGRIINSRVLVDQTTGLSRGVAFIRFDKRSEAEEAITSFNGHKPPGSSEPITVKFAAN

- Kd [1]: 30 nM
- reduction of HuR expression ([3]; MDA-MB-231, 10 nM): 38%
- reduction of HuR expression ([3]; MDA-MB-231, 10 μM): ~75%
- degrader activity under 26S proteasome inhibition [4]: completely impaired
SMILES: O=C1CCC(N2C(=O)c3cccc(NCc4cn(-c5ccc6sc(C(=O)O)cc6c5)nn4)c3C2=O)C(=O)N1 (centres unmarked) [PRO-HuR3]
- apoptosis (caspase 3/7) [2]: significant increase in apoptosis
